# Results published in patent US20110295187A1 (Erchonia Corporation, priority 2004, published 2011).
# Test system: pads of fat near the waist ("love handles")
# Details: patient; niacin 500 mg rising to 1500 mg/day orally by tablet over 14 days; 635 nm diode laser, max 10 mW, 30 min scanning sessions
compound,measurement,value
"O=C(O)c1cccnc1 [niacin, nicotinic acid]",Fat reduction: love handles after treatment,reduced
